From PubChem BioAssay AID2060504 (Molecular Pharmacology Branch, DTP, NCI, 2025)

Test system: 636577-100-R-J1-PDC complex spheroid viability
Test: Anticancer human tumor 636577-100-R-J1-PDC patient-derived endometrial adenocarcinoma cell line growth inhibition [GQUAD]
Details: for IC50: curve of first compound; for viability, T/C: stronger effect = lower value
Summary of the method: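 Tumor cells were grown as complex spheroids with HUVEC endothelial cells and mesenchymal stem cells as stroma. G-quadruplex stabilizers were combined with targeted agents over half-log dilutions from near the clinical Cmax, or from 10 microM.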

[1] = second compound 0.0316 µM, first compound 0.0316 µM
[2] = second compound 0.0316 µM, first compound 0.1 µM
[3] = second compound 0.0316 µM, first compound 0.316 µM
[4] = second compound 0.0316 µM, first compound 1 µM
[5] = second compound 0.0316 µM, first compound 3.16 µM
[6] = second compound 0.0316 µM, first compound 10 µM
[7] = second compound 0.1 µM, first compound 0.0316 µM
[8] = second compound 0.1 µM, first compound 0.1 µM
[9] = second compound 0.1 µM, first compound 0.316 µM
[10] = second compound 0.1 µM, first compound 1 µM
[11] = second compound 0.1 µM, first compound 3.16 µM
[12] = second compound 0.1 µM, first compound 10 µM
[13] = second compound 0.316 µM, first compound 0.0316 µM
[14] = second compound 0.316 µM, first compound 0.1 µM
[15] = second compound 0.316 µM, first compound 0.316 µM
[16] = second compound 0.316 µM, first compound 1 µM
[17] = second compound 0.316 µM, first compound 3.16 µM
[18] = second compound 0.316 µM, first compound 10 µM
[19] = second compound 1 µM, first compound 0.0316 µM
[20] = second compound 1 µM, first compound 0.1 µM
[21] = second compound 1 µM, first compound 0.316 µM
[22] = second compound 1 µM, first compound 1 µM
[23] = second compound 1 µM, first compound 3.16 µM
[24] = second compound 1 µM, first compound 10 µM
[25] = second compound 3.16 µM, first compound 0.0316 µM
[26] = second compound 3.16 µM, first compound 0.1 µM
[27] = second compound 3.16 µM, first compound 0.316 µM
[28] = second compound 3.16 µM, first compound 1 µM
[29] = second compound 3.16 µM, first compound 3.16 µM
[30] = second compound 3.16 µM, first compound 10 µM
[31] = second compound 10 µM, first compound 0.0316 µM
[32] = second compound 10 µM, first compound 0.1 µM
[33] = second compound 10 µM, first compound 0.316 µM
[34] = second compound 10 µM, first compound 1 µM
[35] = second compound 10 µM, first compound 3.16 µM
[36] = second compound 10 µM, first compound 10 µM
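Further: viability read after seven days of drug exposure.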
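Wherever viability, T/C is given: luminescence signal used as a proxy for viable cells; 100% = DMSO vehicle control wells.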

COc1cccc2c1C(=O)c1c(O)c3c(c(O)c1C2=O)CC(O)(C(=O)CO)CC3OC1CC(N)C(O)C(C)O1 (centres undefined) + Cc1[nH]c2ccc(F)cc2c1-c1nc2c3cccnc3c3ncccc3c2[nH]1
IC50 (second compound 0.0316 µM): < 0.0316 µM | IC50 (second compound 0.1 µM): < 0.0316 µM | IC50 (second compound 0.316 µM): < 0.0316 µM | IC50 (second compound 1 µM): < 0.0316 µM | IC50 (second compound 3.16 µM): < 0.0316 µM | IC50 (second compound 10 µM): < 0.0316 µM | viability, T/C [1]: 37.8% | viability, T/C [2]: 16.7% | viability, T/C [3]: 15.8% | viability, T/C [4]: 11.2% | viability, T/C [5]: 0.53% | viability, T/C [6]: 0.35% | viability, T/C [7]: 39.7% | viability, T/C [8]: 18% | viability, T/C [9]: 8.25% | viability, T/C [10]: 9.06% | viability, T/C [11]: 0.53% | viability, T/C [12]: 0.34% | viability, T/C [13]: 37% | viability, T/C [14]: 18.9% | viability, T/C [15]: 14% | viability, T/C [16]: 9.89% | viability, T/C [17]: 0.62% | viability, T/C [18]: 0.43% | viability, T/C [19]: 29.9% | viability, T/C [20]: 18.7% | viability, T/C [21]: 12.2% | viability, T/C [22]: 8.92% | viability, T/C [23]: 0.78% | viability, T/C [24]: 0.5% | viability, T/C [25]: 18.3% | viability, T/C [26]: 18.4% | viability, T/C [27]: 16.1% | viability, T/C [28]: 11.4% | viability, T/C [29]: 0.97% | viability, T/C [30]: 0.58% | viability, T/C [31]: 30.1% | viability, T/C [32]: 18.8% | viability, T/C [33]: 16.1% | viability, T/C [34]: 11.9% | viability, T/C [35]: 0.69% | viability, T/C [36]: 0.49%

COc1cccc2c1C(=O)c1c(O)c3c(c(O)c1C2=O)CC(O)(C(=O)CO)CC3OC1CC(N)C(O)C(C)O1 (centres undefined) + Cc1cnc(CNC(=O)c2c(=O)c3ccc(N4CCCN(C)CC4)nc3n3c2sc2ccccc23)cn1
IC50 (second compound 0.0316 µM): < 0.0316 µM | IC50 (second compound 0.1 µM): < 0.0316 µM | IC50 (second compound 0.316 µM): < 0.0316 µM | IC50 (second compound 1 µM): < 0.0316 µM | IC50 (second compound 3.16 µM): < 0.0316 µM | IC50 (second compound 10 µM): < 0.0316 µM | viability, T/C [1]: 22.1% | viability, T/C [2]: 16.6% | viability, T/C [3]: 15.6% | viability, T/C [4]: 8.2% | viability, T/C [5]: 0.23% | viability, T/C [6]: 0.38% | viability, T/C [7]: 19.2% | viability, T/C [8]: 15.4% | viability, T/C [9]: 13.4% | viability, T/C [10]: 7.3% | viability, T/C [11]: 0.09% | viability, T/C [12]: 0.33% | viability, T/C [13]: 19% | viability, T/C [14]: 16.6% | viability, T/C [15]: 13.1% | viability, T/C [16]: 7.79% | viability, T/C [17]: 0.05% | viability, T/C [18]: 0.28% | viability, T/C [19]: 18.3% | viability, T/C [20]: 15.7% | viability, T/C [21]: 12.5% | viability, T/C [22]: 6.92% | viability, T/C [23]: 0.05% | viability, T/C [24]: 0.3% | viability, T/C [25]: 13.3% | viability, T/C [26]: 17.1% | viability, T/C [27]: 14.2% | viability, T/C [28]: 0.81% | viability, T/C [29]: 0.07% | viability, T/C [30]: 0.15% | viability, T/C [31]: 17.1% | viability, T/C [32]: 15.1% | viability, T/C [33]: 15.2% | viability, T/C [34]: 0.07% | viability, T/C [35]: 0.11% | viability, T/C [36]: 0.15%
